Assay results published in patent publication US9006450B2 (Boehringer Ingelheim International GmbH, priority 2010, dated 2015).
pIC50: −log10 of the molar value.

The compounds below were run against T1, human ACC2 (Homo sapiens, UniProt O00763) (assay: ACC2 assay, spectrophotometric 384 well assay (NADH-linked, coupled lactate dehydrogenase/pyruvate kinase)). Settings: ACC2 assay, hACC2 construct lacking 128 N-terminal amino acids, 25° C., 340 nm; read-out: IC50.
T1 construct: made in house; host or cells: insect cells (baculoviral expression system)
T1 sequence (O00763 129-2458 limits assumed): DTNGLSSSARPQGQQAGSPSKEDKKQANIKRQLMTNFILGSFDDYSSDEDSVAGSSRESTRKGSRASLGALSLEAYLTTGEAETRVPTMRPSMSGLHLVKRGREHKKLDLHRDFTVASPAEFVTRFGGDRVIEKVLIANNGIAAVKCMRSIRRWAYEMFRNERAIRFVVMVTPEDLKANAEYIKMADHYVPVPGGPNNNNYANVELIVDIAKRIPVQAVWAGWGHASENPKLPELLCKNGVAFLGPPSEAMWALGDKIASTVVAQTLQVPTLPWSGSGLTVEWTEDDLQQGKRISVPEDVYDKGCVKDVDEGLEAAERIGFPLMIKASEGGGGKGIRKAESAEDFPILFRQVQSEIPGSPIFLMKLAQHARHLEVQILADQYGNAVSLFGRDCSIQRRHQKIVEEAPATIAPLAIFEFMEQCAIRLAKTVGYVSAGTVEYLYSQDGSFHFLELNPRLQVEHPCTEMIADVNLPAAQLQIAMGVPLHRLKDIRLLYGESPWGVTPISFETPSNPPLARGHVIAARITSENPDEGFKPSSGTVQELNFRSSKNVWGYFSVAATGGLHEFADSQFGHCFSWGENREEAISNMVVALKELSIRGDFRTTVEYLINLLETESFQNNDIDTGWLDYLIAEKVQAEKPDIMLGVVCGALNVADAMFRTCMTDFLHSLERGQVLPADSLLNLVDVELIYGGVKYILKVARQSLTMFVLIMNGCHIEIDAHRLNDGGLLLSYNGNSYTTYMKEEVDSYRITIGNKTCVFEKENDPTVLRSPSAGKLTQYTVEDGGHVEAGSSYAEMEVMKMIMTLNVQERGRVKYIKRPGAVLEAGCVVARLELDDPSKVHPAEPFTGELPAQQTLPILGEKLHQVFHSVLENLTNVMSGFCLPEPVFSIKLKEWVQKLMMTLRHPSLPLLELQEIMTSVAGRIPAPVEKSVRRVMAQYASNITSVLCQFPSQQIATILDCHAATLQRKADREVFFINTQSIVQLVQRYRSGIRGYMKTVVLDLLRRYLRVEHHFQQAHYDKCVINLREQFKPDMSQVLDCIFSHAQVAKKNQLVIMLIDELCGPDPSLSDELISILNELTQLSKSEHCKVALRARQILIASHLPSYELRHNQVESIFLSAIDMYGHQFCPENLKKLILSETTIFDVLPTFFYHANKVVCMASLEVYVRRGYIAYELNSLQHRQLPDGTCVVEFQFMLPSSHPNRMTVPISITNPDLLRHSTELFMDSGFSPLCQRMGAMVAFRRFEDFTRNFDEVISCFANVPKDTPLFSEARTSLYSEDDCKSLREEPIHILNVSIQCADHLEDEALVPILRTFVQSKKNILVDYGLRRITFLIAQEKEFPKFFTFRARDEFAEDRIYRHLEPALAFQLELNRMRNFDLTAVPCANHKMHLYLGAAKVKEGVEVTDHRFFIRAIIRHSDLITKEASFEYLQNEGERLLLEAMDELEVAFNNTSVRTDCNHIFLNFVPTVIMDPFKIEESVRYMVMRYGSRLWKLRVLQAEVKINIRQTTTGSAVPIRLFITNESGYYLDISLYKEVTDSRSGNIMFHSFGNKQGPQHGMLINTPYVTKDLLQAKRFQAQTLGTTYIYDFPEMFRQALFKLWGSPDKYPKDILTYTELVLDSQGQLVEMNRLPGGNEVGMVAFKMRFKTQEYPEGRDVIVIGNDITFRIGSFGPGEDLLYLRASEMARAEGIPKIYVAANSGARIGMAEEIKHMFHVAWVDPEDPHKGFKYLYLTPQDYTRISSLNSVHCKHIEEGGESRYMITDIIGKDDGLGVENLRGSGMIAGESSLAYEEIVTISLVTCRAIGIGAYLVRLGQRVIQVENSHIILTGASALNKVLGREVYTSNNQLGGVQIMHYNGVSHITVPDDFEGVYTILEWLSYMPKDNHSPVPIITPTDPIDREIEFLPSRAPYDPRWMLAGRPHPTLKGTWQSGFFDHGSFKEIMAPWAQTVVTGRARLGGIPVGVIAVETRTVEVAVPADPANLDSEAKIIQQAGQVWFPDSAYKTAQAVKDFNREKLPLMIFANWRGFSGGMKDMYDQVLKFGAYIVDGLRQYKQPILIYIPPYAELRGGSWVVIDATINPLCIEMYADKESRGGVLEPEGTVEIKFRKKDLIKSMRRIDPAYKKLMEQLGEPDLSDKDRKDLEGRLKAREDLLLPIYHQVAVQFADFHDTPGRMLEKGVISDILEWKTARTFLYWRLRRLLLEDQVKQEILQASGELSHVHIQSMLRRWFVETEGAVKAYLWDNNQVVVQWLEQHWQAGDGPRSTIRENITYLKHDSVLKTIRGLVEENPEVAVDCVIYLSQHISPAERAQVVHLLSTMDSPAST
Type: biochemical
Procedure: Spectrophotometric 384 Well Assay
Malonyl CoA formation by acetyl CoA carboxylases is stoichometrically linked to the consumption of ATP. ACC2 activity is measured in a NADH-linked kinetic method measuring ADP generated during the ACC reaction using a coupled lactate dehydrogenase/pyruvate kinase reaction.
For biological testing, a human ACC2 construct which lacks the 128 amino acids at the N-terminus for increased solubility (nt 385-6966 in Genbank entry AJ575592) is cloned. The protein is then expressed in insect cells using a baculoviral expression system. Protein purification is performed by anion exchange.
All compounds are dissolved in dimethyl sulfoxide (DMSO) to a concentration of 10 mM.
Assay reactions are then carried out in 384-well plates, with hACC2 in an appropriate dilution and at final assay concentrations (f.c.) of 100 mM Tris (pH 7.5), 10 mM trisodium citrate, 25 mM KHCO3, 10 mM MgCl2, 0.5 mg/mL BSA, 3.75 mM reduced L-glutathione, 15 U/mL lactate dehydrogenase, 0.5 mM phosphoenolpyruvate, 15 U/mL pyruvate kinase, compounds at different concentrations at final DMSO concentrations of 1%.
The enzymatic reaction is then started by addition of a mixture of NADH, acetyl Coenzyme A (both 200 μM f.c.) and ATP (500 uM f.c.). The decrease of the optical density (slope S) is then determined at 25° C. at a wavelength of 340 nm over 15 minutes in a spectrophotometric reader.
Each assay microtiter plate contains wells with vehicle instead of compound as controls for the non-inhibited enzyme (100% CTL; ‘HIGH’) and wells without acetyl-CoA as controls for non-specific NADH degradation (0% CTL; ‘LOW’).
The slope S is used for calculation of % CTL=(S(compound)−S('LOW'))/(S('HIGH')−S('LOW'))*100. Compounds will give values between 100% CTL (no inhibition) and 0% CTL (complete inhibition).
For IC50 value determination, the sample slope in the presence of the test compound after subtraction of the low controls (S(compound)−S('LOW')) are used.
An IC50 value is derived from the compound slopes at different dosages after subtraction of the low controls (S(compound)−S('LOW')) by non-linear regression curve fitting (equation y=(A+((B−A)/(1+((C/x)^D))))).

pIC50 | SMILES
6.57 | CC(=O)N[C@@H](C)c1ccc(C2CCN(c3cc(OCC4CCCC4)ncn3)CC2)cc1 [Example 11.10]
7.05 | CCCOc1ccc(N2CCC(c3ccc([C@H](C)NC(C)=O)cc3)CC2)c(C#N)c1 [Example 13.1, (S)—N-(1-{4-[1-(2-Cyano-4-propoxy-phenyl)-piperidin-4-yl]-phenyl}-ethyl)-acetamide]
5.06 | CC(=O)N[C@@H](C)c1ccc(C2CCN(c3ncc(C(=O)NCC4OCCO4)cn3)CC2)cc1 [Example 18.83]
7.10 | CC(=O)N[C@@H](C)c1ccc(C2CCN(c3cc(OC(C)C)ncn3)CC2)cc1 [Example 11.2]
6.00 | CC(=O)N[C@@H](C)c1ccc(C2CCN(c3nccc(-c4ccc5c(c4)OCO5)n3)CC2)cc1 [Example 22.3]
4.99 | COc1ccccc1CNC(=O)c1cnc(N2CCC(c3ccc([C@H](C)NC(C)=O)cc3)CC2)nc1 [Example 18.14]
6.38 | CC(=O)N[C@@H](C)c1ccc(C2CCN(c3cc(N4CCCCC4)ncn3)CC2)cc1 [Example 11.57]
7.00 | CC(=O)N[C@@H](C)c1ccc(C2CCN(c3ccc(OCC(C)(C)C)cc3)CC2)cc1 [Example 9.21]
5.92 | CC(=O)N[C@@H](C)c1ccc(C2CCN(c3ccnc(OCc4ccccn4)c3)CC2)cc1 [Example 19.37]
5.21 | CC(=O)N[C@@H](C)c1ccc(C2CCN(c3cc(NCc4ccco4)ncn3)CC2)cc1 [Example 11.59]
7.40 | CC(=O)N[C@@H](C)c1ccc(C2CCN(c3csc(-c4ccc(C(F)(F)F)cn4)n3)CC2)cc1 [Example 34.2]
6.74 | CC(=O)N[C@@H](C)c1ccc(C2CCN(c3ncc(C(=O)Nc4ccc(F)cc4)cn3)CC2)cc1 [Example 18.3]
6.24 | CC(=O)N[C@@H](C)c1ccc(C2CCN(c3cccc(OCC4CCOCC4)c3)CC2)cc1 [Example 9.13]
6.77 | CC(=O)N[C@@H](C)c1ccc(C2CCN(c3ncc(-c4coc5ccccc45)cn3)CC2)cc1 [Example 10.91]
5.54 | CCOc1ccc(N2CCC(c3ccc([C@H](C)NS(C)(=O)=O)cc3)CC2)cc1 [Example 17.1, (S)—N-(1-{4-[1-(4-Ethoxy-phenyl)-piperidin-4-yl]-phenyl}-ethyl)-methanesulfonamide]
6.39 | COc1ccc2[nH]c(-c3cnc(N4CCC(c5ccc([C@H](C)NC(C)=O)cc5)CC4)nc3)cc2c1 [Example 10.115]
4.64 | CCOc1ccc(N2CCC(c3ccc([C@H](C)NC(C)=O)cc3)CC2)c(C(N)=O)c1 [Example 37.1, (S)-2-(4-(4-(1-Acetamidoethyl)phenyl)piperidin-1-yl)-5-ethoxybenzamide]

pIC50 | SMILES
6.74 | CC(=O)N[C@@H](C)c1ccc(C2CCN(c3ccnc(Oc4ccc(F)cc4)n3)CC2)cc1 [Example 11.6]
4.86 | CC(=O)N[C@@H](C)c1ccc(C2CCN(c3ncc(C(=O)NCCN4CCCC4)cn3)CC2)cc1 [Example 18.51]
6.80 | CC(=O)N[C@@H](C)c1ccc(C2CCN(c3ncc(-c4ccccn4)cn3)CC2)cc1 [Example 10.203]
6.72 | CC(=O)N[C@@H](C)c1ccc(C2CCN(c3ncc(C(=O)Nc4ccccc4)cn3)CC2)cc1 [Example 18.95]
4.76 | CC(=O)N[C@@H](C)c1ccc(C2CCN(c3ncc(C(=O)NC4(C#N)CC4)cn3)CC2)cc1 [Example 18.70]
5.46 | C[C@H](NC(=O)C1CC1)c1ccc(C2CCN(c3ncc(C#N)c(N(C)CC4CC4)n3)CC2)cc1 [Example 11.127]
4.75 | CC(=O)N[C@@H](C)c1ccc(C2CCN(c3ccc(C)nc3)CC2)cc1 [Example 15.5]
4.87 | CC(=O)N[C@@H](C)c1ccc(C2CCN(c3ncc(C(=O)N4CCN(C)CC4)cn3)CC2)cc1 [Example 18.52]
4.95 | CCOc1ccc(N2CCC(c3ccc([C@H](C)NS(=O)(=O)C(F)(F)F)cc3)CC2)cc1 [Example 17.4]
6.00 | CCCNc1ccc(N2CCC(c3ccc([C@H](C)NC(C)=O)cc3)CC2)cc1 [Example 24.1, (S)—N-(1-{4-[1-(4-(Propylamino)phenyl)-piperidin-4-yl]-phenyl}-ethyl)-acetamide]
6.06 | CC(=O)N[C@@H](C)c1ccc(C2CCN(c3ccc4oc(C5CC5)nc4c3)CC2)cc1 [Example 15.14]
7.40 | CC(=O)N[C@@H](C)c1ccc(C2CCN(c3ccnc(OC4CCC4)c3)CC2)cc1 [Example 19.2]
6.48 | CC(=O)N[C@@H](C)c1ccc(C2CCN(c3cc(N(C)C4CCCC4)ncn3)CC2)cc1 [Example 11.97]
5.21 | CC(=O)N[C@@H](C)c1ccc(C2CCN(c3ncc(C(=O)NCc4ccccn4)cn3)CC2)cc1 [Example 18.13]
7.70 | CC(=O)N[C@@H](C)c1ccc(C2CCN(c3ncc(-c4ccc(F)cc4)cn3)CC2)cc1 [Example 10.9]
5.77 | CC(=O)N[C@@H](C)c1ccc(C2CCN(c3cc(N(C)C)ncn3)CC2)cc1 [Example 11.105]

The next lines start with the compound.

SMILES | pIC50
C[C@H](NC(=O)C1CC1)c1ccc(C2CCN(c3ccc(OC4CC4)cc3)CC2)cc1 [Example 1.14] | 7.00
CCCOc1ccc(N2CCC(c3ccc([C@H](C)NC(C)=O)cc3)CC2)c(OC)c1 [Example 1.31] | 6.74
COC(=O)N[C@@H](C)c1ccc(C2CCN(c3ccc(OCC4CC4)cc3)CC2)cc1 [Example 1.22] | 6.85
CCOc1ccc(N2CCC(c3ccc([C@H](C)NC(C)=O)cc3)CC2)cc1OCC [Example 1.47] | 5.54
CC(=O)N[C@@H](C)c1ccc(C2CCN(c3ccc(OCC(C)C)c(C#N)c3)CC2)cc1 [Example 8.27] | 5.59
CCOc1ccc(N2CCC(c3ccc([C@H](C)NC(=O)C4CC4C)cc3)CC2)cc1 (stereo partly drawn) [Example 6.18] | 5.96
CCOc1ccc(N2CCC(c3ccc([C@H](C)NC(=O)c4ccnnc4)cc3)CC2)cc1 [Example 6.19] | 5.82
CCOc1ccc(N2CCC(c3ccc([C@H](C)NC(=O)c4nccs4)cc3)CC2)cc1 [Example 6.33] | 5.51
CC(=O)N[C@@H](C)c1ccc(C2CCN(c3ccc(F)c(C)c3)CC2)cc1 [Example 1.155] | 6.39
CCCOc1ccc(N2CCC(c3ccc([C@H](C)NC(C)=O)cc3)CC2)c(F)c1 [Example 1.64] | 7.15
CCOc1cc(N2CCC(c3ccc([C@H](C)NC(C)=O)cc3)CC2)ccn1 [Example 1.191] | 6.41
CNC(=O)c1csc(N2CCC(c3ccc([C@H](C)NC(C)=O)cc3)CC2)n1 [Example 5.9] | 4.60
CCCCOc1ccc(N2CCC(c3ccc([C@H](C)NC(C)=O)cc3)CC2)c(C#N)c1 [Example 4.201] | 7.22
CC(=O)N[C@@H](C)c1ccc(C2CCN(c3ccc(OC4CCOCC4)cc3)CC2)cc1 [Example 7.1, (S)—N-[1-(4-{1-[4-(Tetrahydro-2H-pyran-4-yloxy)-phenyl]-piperidin-4-yl}-phenyl)-ethyl]-acetamide] | 6.24
CC(=O)N[C@@H](C)c1ccc(C2CCN(c3ncc4c(C)n[nH]c4n3)CC2)cc1 [Example 4.20] | 5.89
CCC(=O)N[C@@H](C)c1ccc(C2CCN(c3ccc(OCC4CC4)cc3F)CC2)cc1 [Example 1.148] | 6.15
CC(=O)N[C@@H](C)c1ccc(C2CCN(c3ccc(Cl)cc3)CC2)cc1 [Example 1.46] | 6.15
COc1cc(OC(C)C)ccc1N1CCC(c2ccc([C@H](C)NC(C)=O)cc2)CC1 [Example 1.35] | 6.49
CCOc1cc(N2CCC(c3ccc([C@H](C)NC(C)=O)cc3)CC2)c(F)cn1 [Example 1.190] | 5.85
CCOc1ccc(N2CCC(c3ccc([C@H](C)NC(=O)c4cnc[nH]4)cc3)CC2)cc1 [Example 6.24] | 5.41
CC(=O)N[C@@H](C)c1ccc(C2CCN(c3ncc(OCC4CC4)cn3)CC2)cc1 [Example 4.52] | 6.28
CCOc1ccc(N2CCC(c3ccc([C@H](C)NC(=O)C4CC(F)C4)cc3)CC2)cc1 (stereo partly drawn) [Example 6.38] | 7.05
CCOc1ccc(N2CCC(c3ccc([C@H](C)NC(=O)C4CCC4)cc3)CC2)cc1 [Example 6.7] | 6.11
CC(=O)N[C@@H](C)c1ccc(C2CCN(c3cc(C(F)(F)F)ccn3)CC2)cc1 [Example 4.18] | 6.49
CC(=O)N[C@@H](C)c1ccc(C2CCN(c3ccc(OCC4CCO4)c(F)c3)CC2)cc1 (stereo partly drawn) [Example 8.48] | 5.80
CCOc1ccc(N2CCC(c3ccc([C@H](C)NC(=O)Cc4ccccc4)cc3)CC2)cc1 [Example 6.21] | 5.80
CCCCOc1ccc(N2CCC(c3ccc([C@H](C)NC(C)=O)cc3)CC2)nn1 [Example 3.13] | 6.33
